Experimental data taken from patent US20260297060A1, “COMPOUNDS FOR THE DEGRADATION OF MUTANT BRAF” (C4 THERAPEUTICS, INC., priority 2023, published 2026).
Like-named read-outs stand apart in the source and are kept apart here.

Tests used:
[1] = Example 9 pharmacokinetics assay for the PK and PD study Part I, II and III (plasma, tumor, liver); format: in vivo, BALB/c nude mice; details: mouse, po, 10 mg/kg, p.o., single dose, ± SEM
Description: For the PK and PD study Part I, agents were administered to BALB/c nude mice bearing A375 human melanoma xenografts tumors. Dabrafenib, Compound 218 and Compound 157 were dosed via p.o. once on day 1. Dabrafenib was dosed at 100 mg/kg. Compound 218 and Compound 157 were dosed at 10 mg/kg.
For the PK and PD study Part II, agents were administered to BALB/c nude mice bearing A375 human melanoma xenografts tumors. Compound 133, Compound 144 and Compound 198 were dosed at 10 mg/kg via p.o. once on day 1.
For the PK and PD study Part III, agent was administered to BALB/c nude mice bearing A375 human melanoma xenografts tumors. Compound 204 were dosed at 10 mg/kg via p.o. once on day 1.
The plasma samples were collected at predetermined time points for PK analysis. The mice were euthanized at predetermined time points post the treatment. The blood samples were collected into the 1.5 mL Eppendorf tubes containing 15 μL of 0.5 M EDTA-K2. And then the anticoagulant blood samples were centrifuged at 2,500 g at 4° C. for 15 minutes. The plasma samples were separated into 2 aliquots. The 1st was used for PK analysis, and the 2nd served as backup. The samples were stored at −80° C. before bioanalysis.
The tumor samples were collected at predetermined time points for PK and WB analysis. The tumor was dissected out and split into 3 parts. The 1st part was used for PK analysis, the 2nd part was used for WB analysis and the last one served as backup for study. The samples were transferred into pre-labeled tubes and quickly froze in liquid nitrogen within 2 minutes after dissection. The samples were stored at −80° C. before bioanalysis.
Liver samples were collected at predetermined time points for PK analysis. The left lobe of the liver was dissected out and split into 2 parts. The 1st part was used for PK analysis and the 2nd part served as the backup for the study. The samples were transferred into pre-labeled tubes and quickly froze in liquid nitrogen within 2 minutes after dissection. The samples were stored at −80° C. before bioanalysis.
The harvested plasma, tumor and liver samples were processed for pharmacokinetics analysis by LC-MS/MS with a concentration range of 5.00-10,000 ng/mL for Compound 218, Compound 157 and Compound 133 in plasma, 0.500-1,000 ng/ml for Compound 218 in liver and tumor homogenate, 0.200-400 ng/mL for Compound 157, Dabrafenib and Compound 133 in liver and tumor homogenate, 0.500-1000 ng/mL for Dabrafenib and Compound 204 in plasma, 0.200-200 ng/mL for Compound 204 in liver and tumor homogenate, 20.0-20,000 ng/mL for Compound 144 and Compound 198 in plasma, 1.00-1,000 ng/mL for Compound 144 and Compound 198 in liver and tumor homogenate.

[2] = biological target: T1, human bile salt export pump (BSEP) efflux transporter (Homo sapiens, UniProt O95342); experiment: BSEP Vesicular Transport Inhibition Assay (IC50 determination); format: biochemical; details: human BSEP (HEK293) vesicles, taurocholate 0.2 μM, 4 mM Mg-ATP, 10 concentrations, 1 replicate
T1 construct: purchased SOLVO Biotechnology Charles River Laboratories, Szeged, Hungary; host or cells: HEK293 (inside out membrane vesicles)
Procedure, shortened: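 Inside-out membrane vesicles from HEK293 cells expressing human BSEP were incubated with taurocholate probe substrate and compound (10 concentrations, single replicate) with 4 mM Mg-ATP, or 4 mM AMP for background, for 5 min at 37 °C. Vesicle-trapped substrate was quantified by liquid scintillation counting after filtration.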

[3] = liver, read-out: Mean Concentration in Liver
[4] = plasma, read-out: Mean Concentration in Plasma
[5] = tumor, read-out: Mean Concentration in Tumor

T1 sequence (O95342 whole entry): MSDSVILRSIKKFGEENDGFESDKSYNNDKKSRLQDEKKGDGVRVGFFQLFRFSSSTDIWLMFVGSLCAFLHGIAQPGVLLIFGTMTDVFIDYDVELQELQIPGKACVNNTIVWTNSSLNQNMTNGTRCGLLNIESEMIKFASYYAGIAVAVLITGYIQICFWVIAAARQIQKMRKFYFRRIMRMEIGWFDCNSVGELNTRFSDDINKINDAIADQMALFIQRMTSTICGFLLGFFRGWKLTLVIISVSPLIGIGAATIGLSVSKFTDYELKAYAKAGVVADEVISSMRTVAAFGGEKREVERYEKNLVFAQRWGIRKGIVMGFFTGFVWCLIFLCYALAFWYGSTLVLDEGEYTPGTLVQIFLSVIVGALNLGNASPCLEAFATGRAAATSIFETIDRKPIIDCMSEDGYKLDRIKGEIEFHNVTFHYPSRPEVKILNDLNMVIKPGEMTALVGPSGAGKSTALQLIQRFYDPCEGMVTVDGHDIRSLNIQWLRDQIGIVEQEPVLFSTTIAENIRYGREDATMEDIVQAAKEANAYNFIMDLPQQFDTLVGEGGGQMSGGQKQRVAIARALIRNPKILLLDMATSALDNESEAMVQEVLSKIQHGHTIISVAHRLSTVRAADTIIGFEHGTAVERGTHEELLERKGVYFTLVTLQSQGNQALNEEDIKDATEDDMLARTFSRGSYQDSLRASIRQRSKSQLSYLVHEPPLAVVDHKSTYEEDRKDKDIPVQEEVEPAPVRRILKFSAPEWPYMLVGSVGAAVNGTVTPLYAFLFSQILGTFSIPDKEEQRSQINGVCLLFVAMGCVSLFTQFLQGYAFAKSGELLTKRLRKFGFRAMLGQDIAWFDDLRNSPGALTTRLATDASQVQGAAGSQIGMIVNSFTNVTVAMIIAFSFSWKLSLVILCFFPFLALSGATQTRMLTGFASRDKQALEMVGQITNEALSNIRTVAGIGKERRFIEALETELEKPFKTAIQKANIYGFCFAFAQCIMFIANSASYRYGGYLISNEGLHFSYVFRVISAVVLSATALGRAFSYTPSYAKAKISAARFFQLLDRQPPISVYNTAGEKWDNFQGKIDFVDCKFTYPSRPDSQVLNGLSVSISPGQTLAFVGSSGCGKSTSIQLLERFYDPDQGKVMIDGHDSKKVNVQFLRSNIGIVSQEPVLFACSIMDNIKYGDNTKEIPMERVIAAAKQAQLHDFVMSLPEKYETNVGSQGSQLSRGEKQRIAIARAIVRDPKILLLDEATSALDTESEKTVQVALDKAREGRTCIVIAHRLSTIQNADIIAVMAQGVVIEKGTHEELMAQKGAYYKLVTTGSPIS

Row | Structure (SMILES) | concentration at 6 h [1, 3] | concentration at 12 h [1, 3] | concentration at 1 h [1, 4] | concentration at 6 h [1, 4] | concentration at 12 h [1, 4] | concentration at 24 h [1, 4] | concentration at 1 h [1, 5] | concentration at 6 h [1, 5] | concentration at 12 h [1, 5] | concentration at 24 h [1, 5] | BSEP Inhibition/IC50 ([2]; in nM) | BSEP Inhibition/IC50 [2]
1 | CCN(C)S(=O)(=O)Nc1ccc(F)c(Oc2ccc3ncc(OC4CC5(CCN(C6CCC(c7cc8c(cc7F)c(N7CCC(=O)NC7=O)nn8C)CC6)CC5)C4)nc3c2)c1C#N (single isomer, unassigned) [Compound 218, 7-[2-cyano-3-[[ethyl(methyl)sulfamoyl]amino]-6-fluoro-phenoxy]-2-[[7-[4-[3-(2,4-dioxohexahydropyrimidin-1-yl)-5-fluoro-1-methyl-indazol-6-yl]cyclohexyl]-7-azaspiro[3.5]nonan-2-yl]oxy]quinoxaline] | 5710 ± 300 ng/g | 972 ± 40.9 ng/g | 6310 ± 978 ng/mL | 1750 ± 96.1 ng/mL | 206 ± 11.5 ng/mL | 6.2 ± 3.47 ng/mL | 1850 ± 164 ng/g | 1360 ± 21.9 ng/g | 268 ± 26.7 ng/g | 13.4 ± 4.31 ng/g | 13210 | –
2 | Cn1nc(N2CCC(=O)NC2=O)c2cc(F)c(N3CC4(CC(N5CCC6(CC5)C[C@@H](n5cnc7ccc(Oc8c(F)ccc(NS(=O)(=O)N9CC[C@@H](F)C9)c8C#N)cc7c5=O)CO6)C4)C3)cc21 [Compound 133, (3R)-N-[2-cyano-3-[3-[(3R)-8-[2-[3-(2,4-dioxohexahydropyrimidin-1-yl)-5-fluoro-1-methyl-indazol-6-yl]-2-azaspiro[3.3]heptan-6-yl]-1-oxa-8-azaspiro[4.5]decan-3-yl]-4-oxo-quinazolin-6-yl]oxy-4-fluoro-phenyl]-3-fluoro-pyrrolidine-1-sulfonamide] | 2030 ± 179 ng/g | 503 ± 207 ng/g | 8880 ± 604 ng/mL | 3460 ± 69.8 ng/mL | 733 ± 348 ng/mL | 23.4 ± 5.56 ng/mL | 764 ± 122 ng/g | 686 ± 6.23 ng/g | 316 ± 172 ng/g | 41.7 ± 26.4 ng/g | – | 6.22 µM
